Results: US7011834B1, “Immunomodulating dimers” (The Board of Trustees of Leland Stanford Junior University, priority 1987, dated 2006)
Where no end group is shown, it is not given here.

Legend:
[1] = test system: CD8+CTL line specific for HLA-A2; assay: Cytotoxicity assay: inhibition of lysis by established CTL, 51Cr-labeled JY targets; assay type: cell-based, human; details: for inhibition of lysis by established CTL: HLA-A2 specific CD8+CTL, JY targets, peptides 100 μg/ml, 4 h assay
Procedure: Cytotoxicity Assay. CTL assays were performed as described using ^51Cr-labeled EBV transformed B cells expressing the appropriate HLA allele as targets [[…] et al., J. Immunol. (1982) 129:2001]. In the present protocol, a CD8+CTL line specific for HLA-A2 was tested in the presence of various peptides for lysis of ^51Cr-labeled JY targets. Peptides were added to a final concentration of 100 μg/ml at the initiation of the 4 h assay. Each determination was the mean of triplicate wells. […] In these determinations, inhibition of cytolysis, as described above, employed the CTL cell line AJY, a long term CD8+CTL line specific for HLA-A2 and the target cell was the B-lymphoblastoid cell line JY (HLA-A2, B7). The cytotoxicity assay was performed as described by Clayberger et al., J. Exp. Med. (1984) 162:1709-1714; and Reiss et al., Proc Natl Acad Sci USA (1980) 77:5432-5436. The peptides were preincubated for 30 min with 1-3×10^3 CTLs before addition of 10^3 51Cr-labeled B-lymphoblastoid target cells. The results are reported for varying concentrations of the peptide with varying ratios of the two cell lines.

[2] = test system: Lew specific CTL precursors in splenocytes; assay: Limiting dilution assay for CTL precursors in splenocytes after in vivo peptide; design: species or system rat; details: PVG rats; for [CTL precursor frequency]^−1: single iv 2 mg, Lew stimulators
Procedure: The effect of peptides on CTL precursor frequencies in splenocytes was tested as follows. Limiting dilution analysis was carried out essentially as described (Moeller et al. 1993, supra; Skinner and Marbrook. J. Exp. Med. (1976) 143:1562). Briefly, spleens were removed from naive animals or from animals that had received an allograft a minimum of 60 days earlier and then teased into a single cell suspension. Responder cells were plated from 1000 to 40,000 cells per well (24 replicates per concentration) into round bottom microliter wells in RPMI 1640 supplemented with 10% fetal bovine serum (Hyclone, Logan, Utah), 2 mM L-glutamine, 5×10^−5M β-mercaptoethanol, 100 U/ml penicillin, 100 μg/ml streptomycin, 20% supernatant from Concanavalin A activated rat spleen cells, and 50 μM α-methyl mannoside. Then, 5×10^5 irradiated (2000 rads) stimulator cells were added to each well and plates were incubated in a humidified CO2 incubator. After 5 days, aliquots were removed and tested for lysis of ^51Cr-labeled Concanavalin A activated blasts. Aliquots of supernatant were counted in a gamma counter and CTL precursor frequency determined by linear regression (Skinner and Marbrook. 1976, supra). Wells were considered positive if specific release was >10%.
PVG (RT1^c) or ACI […] rats were treated with a single intravenous injection of saline or 2 mg of A2.75-84, B7.75-84, B2702.75-84, or RT1^a.75-84 peptide. Their spleens were removed on different days after peptide treatment, cultured under limiting dilution conditions for 5 days with irradiated (2000R) splenocytes from Lewis rats; i.e., Lew (RT1^1) stimulator cells, and assayed for lysis of ^51Cr-labeled Lew blasts. CTL precursor frequency was determined by linear regression analysis.

[3] = Half-life of peptide in rats; details: rat, in vivo, preliminary studies
Procedure: Therefore, we tested whether splenocytes obtained from rats treated with the peptides in vivo could differentiate into CTL ex vivo. In preliminary studies, the half-life of the B7.75-84 peptide was determined to be 2–3 hours in rats.

Which “potency relative to B2702.75-84, based on concentration required to achieve 50% inhibition of cytotoxicity” value [1] does the source give for WDRETQICKAKAQTDRENLRIALRY [B2702.60–84] here?
Its value is “approximately 5 fold”.

For “RENLRILLRY (listed as Homo sapiens) [B2702.75–84L^81, leucine replaces alanine at position 81]”, which “inhibition of lysis by established CTL” value [1] is on record?
Its value is “inhibited lysis comparably to 02.75-84”.

With “RVDLRTLRGY (listed as Homo sapiens) [RT1A.75–84, peptide corresponding to the same residues from a rat MHC class I molecule, reference compound]” as the substance, how does the “[CTL precursor frequency]^−1” value ([2]; 0 days after peptide injection) read?
The value was 56,583.

And the “[CTL precursor frequency]^−1” value ([2]; 1 day after peptide injection)?
Its value is 54,631.

And the “[CTL precursor frequency]^−1” value ([2]; 7 days after peptide injection)?
Its value is 55,647.

And the “[CTL precursor frequency]^−1” value ([2]; 10 days after peptide injection)?
Its value is 56,583.

And the “precursor frequency of Lew specific cells in splenocytes (1 in)” value ([2]; independent of the day on which the spleen was removed)?
The value was ~55,000.

Which “inhibition of lysis by established CTL” value [1] does the source give for “REDLRIALRY (listed as Homo sapiens) [B2702.75–84D^77, aspartic replaces asparagine at position 77]” here?
Its value is “did not inhibit lysis”.

With “B7.84–75/75–84: SEQ ID NO:27 (also NO:35); Table 1 sequence read from dashes: YGRLNRLSERRESLRNLRGY (listed as Homo sapiens)” as the substance, how does the “inhibition of lysis by established CTL” value [1] read?
Its value is “did not inhibit CTL-mediated lysis at any concentration tested”.

For “B2702.75–84T^80: SEQ ID NO:25; threonine replaces isoleucine at position 80: RENLRTALRY (listed as Homo sapiens)”, which “inhibition of lysis by established CTL” value [1] is on record?
Its value is “did not inhibit lysis”.

Which “inhibition of lysis by established CTL” value [1] does the source give for “B2702.70–84: SEQ ID NO:33, the 15-mer; Table 1 sequence read from dashes: KAQTDRENLRIALRY (listed as Homo sapiens)” here?
The value was “comparably effective in inhibiting cytolysis to B2072.75-84”.

For RESLRNLRGY [B7.75–84], which half-life [3] is on record?
Its half-life is 2 to 3 h.
